Laboratory results published in BindingDB's records for doi:10.1016/s1074-5521(97)90198-8 (Massachusetts Institute of Technology, 1997).

These compounds were tested against Methionine aminopeptidase 2 (Homo sapiens, UniProt P50579) (assay: Enzymatic Assay). Conditions: pH 7.35; 37 °C.
Excerpt: Enzymatic assay using recombinant human type 2 methionine aminopeptidase (MetAP2).

Sequence of Methionine aminopeptidase 2 (P50579 whole entry): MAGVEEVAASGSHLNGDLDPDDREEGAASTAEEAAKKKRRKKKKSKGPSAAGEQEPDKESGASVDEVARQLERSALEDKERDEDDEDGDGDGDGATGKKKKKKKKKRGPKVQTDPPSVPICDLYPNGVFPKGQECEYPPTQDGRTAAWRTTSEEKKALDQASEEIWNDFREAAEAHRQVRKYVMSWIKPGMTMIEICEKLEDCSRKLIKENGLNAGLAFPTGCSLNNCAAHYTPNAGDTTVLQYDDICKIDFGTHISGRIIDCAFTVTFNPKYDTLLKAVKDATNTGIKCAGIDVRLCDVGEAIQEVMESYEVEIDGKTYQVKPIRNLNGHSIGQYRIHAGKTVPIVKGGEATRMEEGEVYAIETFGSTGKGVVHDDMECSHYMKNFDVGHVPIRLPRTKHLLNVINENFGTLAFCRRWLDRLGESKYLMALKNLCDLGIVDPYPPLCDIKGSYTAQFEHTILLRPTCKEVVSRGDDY

**Q.** With `CO[C@H]1C([C@]2(C)OC2CC=C(C)C)[C@]2(CC[C@H]1OC(=O)NC(=O)CCl)CO2` (stereo not given in full) [AGM-1470] as the compound, how does the IC50 read?
**A.** Its IC50 is 1 nM.

**Q.** For `CO[C@@H]1[C@H](O)CC[C@]2(CO2)[C@@]1(O)[C@]1(C)OC1CC=C(C)C` (stereo not given in full) [FOS-34], which IC50 is on record?
**A.** Its IC50 is 4 nM.

**Q.** `CO[C@H]1C([C@]2(C)OC2CC=C(C)C)[C@]2(CC[C@H]1O)CO2` (stereo not given in full) [FOS-37] was tested. Which IC50 did it give?
**A.** Its IC50 is 8 nM.

**Q.** How did the IC50 turn out when `CO[C@H]1C([C@]2(C)OC2CC=C(C)C)[C@@](O)(SC)CC[C@H]1OC(=O)NC(=O)CCl` (stereo not given in full) [FOS-64] was run?
**A.** The IC50 was 3000 nM.

**Q.** With `CO[C@@H]1[C@H](OC(=O)NC(=O)CCl)CC[C@]2(CO2)[C@@]1(O)[C@]1(C)OC1CC=C(C)C` (stereo not given in full) [FOS-68] as the compound, how does the IC50 read?
**A.** The IC50 was 2 nM.

**Q.** `CO[C@@H]1[C@H](OC(=O)CCCCl)CC[C@]2(CO2)[C@@]1(O)[C@]1(C)OC1CC=C(C)C` (stereo not given in full) [FOS-69] was tested. Which IC50 did it give?
**A.** Its IC50 is 0.1 nM.

**Q.** For `CO[C@H]1C([C@]2(C)OC2CC=C(C)C)[C@]2(CC[C@H]1OC(=O)CCCCl)CO2` (stereo not given in full) [FOS-70], which IC50 is on record?
**A.** The IC50 was 3.5 nM.

**Q.** `CO[C@@H]1C(=O)CC[C@]2(CO2)C1[C@]1(C)OC1CC=C(C)C` (stereo not given in full) [FOS-72] was tested. Which IC50 did it give?
**A.** Its IC50 is 6 nM.

**Q.** With `CO[C@@H]1[C@H](O)CC[C@](O)(SC)[C@@]1(O)[C@]1(C)OC1CC=C(C)C` (stereo not given in full) [FOS-201] as the compound, how does the IC50 read?
**A.** Its IC50 is 45 nM.

**Q.** With `CO[C@H]1C([C@]2(C)OC2CC=C(C)C)[C@@](O)(SC)CC[C@H]1O` (stereo not given in full) [FOS-202] as the compound, how does the IC50 read?
**A.** The IC50 was 5000 nM.
